Measured values as given in publication PMC3293837, “Biophysical Property and Broad Anti-HIV Activity of Albuvirtide, a 3-Maleimimidopropionic Acid-Modified Peptide Fusion Inhibitor” (PLoS ONE, 2012).
Like-named read-outs stand apart in the source and are kept apart here. Side chains are listed from the residue outwards. Peptide text beside a SMILES is read from it. * marks the point of attachment. Propanoyl(3-maleimido) = O=C1C=CC(=O)N1CCC(=O)*; AEEA = NCCOCCOCC(=O)O

Assays:
[1] = monkeys, intravenous, ref [25], cited from earlier work
[2] = rats, intravenous, ref [25], cited from earlier work
[3] = tested on: HIV-1NL4-3 V38A pseudovirus; type: cell-based
Description: (§1) HIV-1 pseudoviruses were generated as described previously [32], [55]–[56]. Briefly, 293T cells (5×10^6 cells in 15 ml of growth medium in a T-75 culture flask) were cotransfected with 10 µg of an Env-expressing plasmid and 20 µg of a backbone plasmid pSG3deltaEnv that encodes Env-defective, luciferase-expressing HIV-1 genome using Lipofectamine 2000 reagent (Invitrogen). Pseudovirus-containing culture supernatants were harvested 48 hours after transfection and filtered by 0.45-mm pore size, and stored at −80°C in 1-ml aliquots until use. The 50% tissue culture infectious dose (TCID50) of a single thawed aliquot of each pseudovirus batch was determined in TZM-bl cells. […] Briefly, the peptides were prepared with ten series dilutions in a 3-fold stepwise manner and mixed with 100 TCID50 viruses and incubated 1 hour at room temperature. The mixture was added to TZM-bl cells (10^4/well) and incubation at 37°C for 48 hours. Luciferase activity was measured using luciferase assay regents (Promega, Medison, WI) and a Luminescence Counter (Promega) according to the manufacture's instructions.

[4] = tested on: HIV-1NL4-3 D36G pseudovirus; type: cell-based
Description: as §1

[5] = tested on: HIV-1NL4-3 V38M pseudovirus; type: cell-based
Description: as §1

[6] = tested on: HIV-1NL4-3 N43K pseudovirus; type: cell-based
Description: (§2) The mutations were created using double-stranded DNA templates and selection of mutants with DpnI. For each mutation, the two primers contained the desired mutation and occupied the same starting and ending positions on opposite strands of the plasmid DNA. DNA synthesis was carried out by PCR in a 50-µL reaction volume using 1 µL of denatured plasmid template (1 ng/µL), 50 pmol of upper and lower primers and 5 U of high-fidelity thermostable polymerase PrimeStar (Takara, Dalian, China). PCR amplification was carried out for one cycle of denaturation at 98°C for 5 min, then 18 cycles of 98°C for 15 s and 68°C for 15 min, followed a final extension at 72°C for 10 min. The amplicons were treated with the restriction enzyme DpnI for 1 h at 37°C. DpnI-resistant molecules, which were rich in the desired mutants, were recovered by transforming Escherichia coli strain-DH5α to antibiotic resistance. The successful mutations were confirmed by sequencing.
as §1

[7] = tested on: HIV-1NL4-3 D36S/V38M pseudovirus; type: cell-based
Description: as §2, §1

[8] = tested on: HIV-1NL4-3 V38A/N42T pseudovirus; type: cell-based
Description: as §1

[9] = tested on: HIV-1NL4-3 Q40H pseudovirus; type: cell-based
Description: as §2, §1

[10] = tested on: HIV-1NL4-3 I37T pseudovirus; type: cell-based
Description: as §1

[11] = tested on: HIV-1NL4-3 I37T/N43K pseudovirus; type: cell-based
Description: as §2, §1

[12] = tested on: HIV-1NL4-3 Env-pseudotyped virus; type: cell-based
Description: as §1

[13] = after conjugation with serum albumin
[14] = value from which half-life was extended by albumin conjugation

CC[C@H](C)[C@H](NC(=O)[C@H](CC(C)C)NC(=O)[C@H](CCC(=O)O)NC(=O)[C@H](Cc1c[nH]cn1)NC(=O)[C@@H](NC(=O)[C@H](CC(C)C)NC(=O)[C@H](CCCCNC(=O)COCCOCCNC(=O)CCN1C(=O)C=CC1=O)NC(=O)[C@@H](NC(=O)[C@H](Cc1ccc(O)cc1)NC(=O)[C@H](CC(N)=O)NC(=O)[C@H](CC(N)=O)NC(=O)[C@@H](NC(=O)[C@H](CCC(=O)O)NC(=O)[C@H](CCCNC(=N)N)NC(=O)[C@H](CC(=O)O)NC(=O)[C@H](Cc1c[nH]c2ccccc12)NC(=O)[C@H](CCC(=O)O)NC(=O)[C@H](CCC(=O)O)NC(=O)[C@H](Cc1c[nH]c2ccccc12)NC(C)=O)[C@@H](C)CC)[C@@H](C)O)[C@@H](C)CC)C(=O)N[C@@H](CCC(=O)O)C(=O)N[C@@H](CCC(=O)O)C(=O)N[C@@H](CO)C(=O)N[C@@H](CCC(N)=O)C(=O)N[C@@H](CC(N)=O)C(=O)N[C@@H](CCC(N)=O)C(=O)N[C@@H](CCC(N)=O)C(=O)N[C@@H](CCC(=O)O)C(=O)N[C@@H](CCCCN)C(=O)N[C@@H](CC(N)=O)C(=O)N[C@@H](CCC(=O)O)C(=O)N[C@@H](CCC(N)=O)C(=O)N[C@@H](CCC(=O)O)C(=O)N[C@@H](CC(C)C)C(=O)N[C@@H](CC(C)C)C(N)=O [ABT] (Ac-WEEWDREINNYTK([AEEA-Propanoyl(3-maleimido)])LIHELIEESQNQQEKNEQELL-NH2)
in vivo half-life (extended, 'to') [1, 13]: 102.4 h
in vivo half-life (before extension, 'from') [1, 14]: 10.89 h
in vivo half-life (extended, 'to') [2, 13]: 25.8 h
in vivo half-life (before extension, 'from') [2, 14]: 1.67 h

Cc1cn([C@H]2C[C@H](N=[N+]=[N-])[C@@H](CO)O2)c(=O)[nH]c1=O [AZT]
IC50 ([3]; HIV-1NL4-3 V38A, TZM-bl, 48 h, mean ± SD of three independent experiments): 42.3 ± 9 nM
Fold change (in parentheses) ([3]; V38A, reference D36G): 0.7
Fold change ([3]; V38A, reference wild-type): 0.4
Fold change (in parentheses) ([4]; D36G, reference D36G): 1.0
Fold change ([4]; D36G, reference wild-type): 0.6
IC50 ([4]; HIV-1NL4-3 D36G, TZM-bl, 48 h, mean ± SD of three independent experiments): 59.4 ± 5.9 nM
IC50 ([5]; HIV-1NL4-3 V38M, TZM-bl, 48 h, mean ± SD of three independent experiments): 47.8 ± 3.7 nM
Fold change (in parentheses) ([5]; V38M, reference D36G): 0.8
Fold change ([5]; V38M, reference wild-type): 0.5
IC50 ([6]; HIV-1NL4-3 N43K, TZM-bl, 48 h, mean ± SD of three independent experiments): 153 ± 7.4 nM
Fold change (in parentheses) ([6]; N43K, reference D36G): 2.6
Fold change ([6]; N43K, reference wild-type): 1.4
Fold change (in parentheses) ([7]; D36S/V38M, reference D36G): 0.7
Fold change ([7]; D36S/V38M, reference wild-type): 0.4
IC50 ([7]; HIV-1NL4-3 D36S/V38M, TZM-bl, 48 h, mean ± SD of three independent experiments): 40.3 ± 8.6 nM
IC50 ([8]; HIV-1NL4-3 V38A/N42T, TZM-bl, 48 h, mean ± SD of three independent experiments): 38.1 ± 3.7 nM
Fold change (in parentheses) ([8]; V38A/N42T, reference D36G): 0.6
Fold change ([8]; V38A/N42T, reference wild-type): 0.4
IC50 ([9]; HIV-1NL4-3 Q40H, TZM-bl, 48 h, mean ± SD of three independent experiments): 33.2 ± 7.2 nM
Fold change (in parentheses) ([9]; Q40H, reference D36G): 0.6
Fold change ([9]; Q40H, reference wild-type): 0.3
IC50 ([10]; HIV-1NL4-3 I37T, TZM-bl, 48 h, mean ± SD of three independent experiments): 93.5 ± 13.5 nM
Fold change (in parentheses) ([10]; I37T, reference D36G): 1.6
Fold change ([10]; I37T, reference wild-type): 0.9
IC50 ([11]; HIV-1NL4-3 I37T/N43K, TZM-bl, 48 h, mean ± SD of three independent experiments): 139 ± 14.9 nM
Fold change (in parentheses) ([11]; I37T/N43K, reference D36G): 2.3
Fold change ([11]; I37T/N43K, reference wild-type): 1.3
IC50 ([12]; HIV-1NL4-3 WT pseudovirus, Table 3, TZM-bl, 48 h, mean ± SD of three independent experiments, read-out: IC50): 107 ± 23.2 nM
Fold change (in parentheses) ([12]; WT, reference D36G): 1.8
Fold change ([12]; WT, reference wild-type): 1.0
